Experimental data as given in patent US4431650A, “Esters of benzofuranyl acids” (Union Carbide Corporation, priority 1980, dated 1984).
Converted amounts (≈) assume the structure as drawn.

Tests used:
Assay type in all cases: in vivo
[1] = system: bean aphid (Aphis fabae Scop.); experiment: Bean Aphid Foliage Spray Test; details: foliar, foliage spray on nasturtium plants, adults and nymphs, mortality after 24 hour holding period, read-out: LD50 Aphid
Experimental: (§1) Suspensions of the test compounds were prepared by dissolving one gram of compound in 50 milliliters of acetone in which had been dissolved 0.1 gram (10 percent of the weight of compound) of an alkylphenoxy polyethoxyethanol surfactant, as an emulsifying or dispersing agent. The resulting solution was mixed into 150 milliliters of water to give roughly 200 milliliters of a suspension containing the compound in finely divided form. The thus-prepared stock suspension contained 0.5 percent by weight of compound. The concentrations in parts per million by weight employed in the tests described hereinbelow were obtained by appropriate dilutions of the stock suspension with water. The test procedures were as follows:
Adults and nymphal stages of the bean aphid (Aphis fabae Scop.) reared on potted dwarf nasturtium plants at 65°-70° F. and 50-70 percent relative humidity, constituted the test insects. For testing purposes, the number of aphids per pot was standardized to 100-150 by trimming plants containing excess aphids. […]
The potted plants (one pot per compound tested) infested with 100-150 aphids, were placed on a revolving turntable and sprayed with 100-110 milliliters of test compound formulation by use of a DeVilbiss spray gun set at 40 psig. air pressure. […] Percent mortality was recorded for various concentration levels. […]

[2] = system: two-spotted mite (Tetranychus urticae Koch); experiment: Mite Foliage Spray Test; details: foliar, 144 h, foliage spray on bean plants, adults and nymphs, mortality count of motile forms after six days, read-out: LD50 Mite
Experimental: as §1
Adults and nymphal stage of the two-spotted mite (Tetranychus urticae Koch), reared on Tendergreen bean plants at 80±5 percent relative humidity, were the test organisms. Infested leaves from a stock culture were placed on the primary leaves of two bean plants six to eight inches in height, growing in a two-and-a-half inch clay pot. 150-200 Mites, a sufficient number for testing, transferred from the excised leaves to the fresh plants in a period of twenty four hours. Following the twenty four hour transfer period, the excised leaves were removed from the infested plants. […]

[3] = system: southern armyworm (Spodoptera eridania, (Cram.)); experiment: Southern Armyworm Leaf Spray Bait Test; details: 72 h, larvae on sprayed bean leaves, held three days, read-out: LD50 SAW
Experimental: as §1
Larvae of the southern armyworm (Spodoptera eridania, (Cram.)), reared on Tendergreen bean plants at a temperature of 80°±5° F. and a relative humidity of 50± percent, constituted the test insects.
The test compounds were formulated by diluting the stock suspension with water to give a suspension containing 500 parts of test compound per million parts of final formulation. Potted Tendergreen bean plants of standard height and age were placed on a revolving turntable and sprayed with 100-110 milliliter of test compound formulation by use of a DeVilbiss spray gun set at 10 psig air pressure. […] Percent mortality was recorded for various concentration levels. […]

[4] = system: Mexican bean beetle (Epilachna variestis, Muls.); experiment: Mexican Bean Beetle Leaf Spray Test; details: 72 h, read-out: LD50 MBB
Experimental: as §1
Fourth instar larvae of the Mexican bean beetle (Epilachna variestis, Muls.), reared on Tendergreen bean plants at a temperature of 80°±5° F. and 50±5 percent relative humidity, were the test insects.
The test compounds were formulated by diluting the stock suspension with water to give a suspension containing 500 parts of test compound per million parts of final formulation. Tendergreen bean plants of standard height and age were placed on a revolving turntable and sprayed with 100-110 milliliters of test compound formulation by use of a DeVilbiss spray gun set at 10 psig air pressure. This application, which lasted 25 seconds, was sufficient to wet plants to run-off. […]

[5] = system: house flies (Musca domestica, L.); experiment: Fly Bait Test; details: po, 24 h, adult flies, bait in 10 percent sugar solution, twenty four hours, read-out: LD50 HF
Experimental: as §1
Four to six day old adult house flies (Musca domestica, L.), reared according to the specifications of the Chemical Specialities Manufacturing Association (Blue Book, McNair-Dorland Co., N.Y. 1954; pages 243-244, 261) under controlled conditions of 80± F. and 50±5 percent relative humidity, were the test insects. The flies were immobilized by anesthetizing with carbon dioxide and twenty five immobilized individuals,males and females, were transferred to a cage consisting of a standard food strainer about five inches in diameter which was inverted over a wrapping-paper-covered surface. […]

[6] = system: Corn; experiment: Phytotoxicity, corn; design: key: 1 = No plant injury at a dose of 2500 ppm; details: rating; dose of 2500 ppm
[7] = system: Cott.; experiment: Phytotoxicity, cotton; design: key: 1 = No plant injury at a dose of 2500 ppm; details: rating; dose of 2500 ppm
[8] = system: Soybean; experiment: Phytotoxicity, soybean; design: key: 1 = No plant injury at a dose of 2500 ppm; details: rating; dose of 2500 ppm

Compound | LC50 [1] | LC50 [2] | LC50 [3] | LC50 [4] | LC50 [5] | Phytotoxicity Corn [6] | Phytotoxicity Cott. [7] | Phytotoxicity Soybean [8]
CC(C)C(C(=O)OC(C#N)c1cccc(Oc2ccccc2)c1)c1cc2ccccc2o1 (stereo not shown) | ~0.7 µg/mL (≈ 1.65 µM) | 210 µg/mL (≈ 494 µM) | ~45 µg/mL (≈ 106 µM) | 11 µg/mL (≈ 25.9 µM) | 23 µg/mL (≈ 54.1 µM) | 1 | 1 | 1
C#CC(OC(=O)C(c1cc2ccccc2o1)C(C)C)c1cccc(Oc2ccccc2)c1 (stereo not shown) | 0.8 µg/mL (≈ 1.88 µM) | 200 µg/mL (≈ 471 µM) | 52 µg/mL (≈ 122 µM) | 5 µg/mL (≈ 11.8 µM) | ~180 µg/mL (≈ 424 µM) | 1 | 1 | 1
